Assay results reported in publication PMC2674291 (The Open Biochemistry Journal, 2009).

Assays:
[1] = tested on: Phenoloxidase of the resistant strain (POr); settings: 20 mM PBS pH 6.5; room temperature; partially purified enzyme
[2] = tested on: Phenoloxidase of the susceptible strain (POs); assay: absorbance at […] nm, initial rate, microtiter plate; type: biochemical, Plutella xylostella; settings: 20 mM PBS pH 6.5; room temperature; partially purified enzyme

`N[C@@H](Cc1ccc(O)c(O)c1)C(=O)O` [L-DOPA] showed a Km [1] of 1110 µM and a Km [2] of 1110 µM.
